Results as given in ChEMBL document CHEMBL4000174, “Synthesis and antitumor activity of novel substituted uracil-1'(N)-acetic acid ester derivatives of 20(S)-camptothecins” (Eur J Med Chem, 2017).
pIC50: −log10 of the molar value. Active and inactive are the calls of the source. The calls are words filed in the database; no cut-off is given here.

Legend:
BGC-823 [1] = assay: Antiproliferative activity against human BGC823 cells after 96 hrs by MTT assay; type: functional, cell-based; conditions: BGC-823, 96 h
Mus musculus [2] = assay: Toxicity in Kunming mouse implanted with mouse H22 cells assessed as body weight at 40 mg/kg, ip administered on day 1 and day 5 (reference value: 32.5 g); type: organism-based; conditions: in vivo
H22 = assay: Antitumor activity against mouse H22 cells implanted in Kunming mouse assessed as tumor growth inhibition at 60 mg/kg, ip administered twice relative to control; type: functional; conditions: read-out: TGI
Mus musculus [3] = assay: Toxicity in BALB/c nude mouse xenografted with human BGC823 cells assessed as body weight at 60 mg/kg, ip administered once in a week for two weeks starting from 6 days post tumor transplantation and measured every 3 days during compound dosing for 15 days (reference value: 23.6 g); type: organism-based; conditions: in vivo, 360 h
Mus musculus [4] = assay: Toxicity in BALB/c nude mouse xenografted with human BGC823 cells assessed as body weight at 30 mg/kg, ip administered once in a week for two weeks starting from 6 days post tumor transplantation and measured every 3 days during compound dosing for 15 days (reference value: 23.6 g); type: organism-based; conditions: in vivo, 360 h
Mus musculus [5] = assay: Toxicity in Kunming mouse implanted with mouse H22 cell assessed as survival at 40 mg/kg, ip administered on day 1 and day 5; type: organism-based; conditions: in vivo
BGC-823 [6] = assay: Antitumor activity against human BGC823 cells xenografted in BALB/c nude mouse assessed as tumor volume at 60 mg/kg, ip administered once in a week for two weeks starting from 6 days post tumor transplantation measured 27 to 30 days post tumor transplantation relative to control; type: functional
A549 [7] = assay: Induction of apoptosis in human A549 cells assessed as necrotic cells at 8 nM after 24 hrs by Annexin V-FITC/propidium iodide staining based flow cytometry (reference value: 7.62%); type: functional
A549 [8] = assay: Induction of apoptosis in human A549 cells assessed as late apoptotic cells at 8 nM after 24 hrs by Annexin V-FITC/propidium iodide staining based flow cytometry (reference value: 2.47%); type: functional
A549 [9] = assay: Induction of apoptosis in human A549 cells assessed as early apoptotic cells at 8 nM after 24 hrs by Annexin V-FITC/propidium iodide staining based flow cytometry (reference value: 0.50%); type: functional
A549 [10] = assay: Cell cycle arrest in human A549 cells assessed as accumulation at G0/G1 phase at 8 nM after 24 hrs by propidium iodide staining based flow cytometry (reference value: 58.84%); type: functional
A549 [11] = assay: Cell cycle arrest in human A549 cells assessed as accumulation at S phase at 8 nM after 24 hrs by propidium iodide staining based flow cytometry (reference value: 32.80%); type: functional
A549 [12] = assay: Cell cycle arrest in human A549 cells assessed as accumulation at G2/M phase at 25 nM after 24 hrs by propidium iodide staining based flow cytometry (reference value: 8.36%); type: functional
A549 [13] = assay: Cell cycle arrest in human A549 cells assessed as accumulation at G0/G1 phase at 75 nM after 24 hrs by propidium iodide staining based flow cytometry (reference value: 58.84%); type: functional
A549 [14] = assay: Cell cycle arrest in human A549 cells assessed as accumulation at G2/M phase at 75 nM after 24 hrs by propidium iodide staining based flow cytometry (reference value: 8.36%); type: functional
A549 [15] = assay: Induction of apoptosis in human A549 cells assessed as viable cells at 75 nM after 24 hrs by Annexin V-FITC/propidium iodide staining based flow cytometry (reference value: 89.41%); type: functional; conditions: A549, 24 h, read-out: Activity
A549 [16] = assay: Induction of apoptosis in human A549 cells assessed as early apoptotic cells at 75 nM after 24 hrs by Annexin V-FITC/propidium iodide staining based flow cytometry (reference value: 0.50%); type: functional
A549 [17] = assay: Induction of apoptosis in human A549 cells assessed as late apoptotic cells at 75 nM after 24 hrs by Annexin V-FITC/propidium iodide staining based flow cytometry (reference value: 2.47%); type: functional
A549 [18] = assay: Induction of apoptosis in human A549 cells assessed as viable cells at 25 nM after 24 hrs by Annexin V-FITC/propidium iodide staining based flow cytometry (reference value: 89.41%); type: functional; conditions: A549, 24 h, read-out: Activity
A549 [19] = assay: Induction of apoptosis in human A549 cells assessed as late apoptotic cells at 25 nM after 24 hrs by Annexin V-FITC/propidium iodide staining based flow cytometry (reference value: 2.47%); type: functional
A549 [20] = assay: Induction of apoptosis in human A549 cells assessed as necrotic cells at 25 nM after 24 hrs by Annexin V-FITC/propidium iodide staining based flow cytometry (reference value: 7.62%); type: functional
A549 [21] = assay: Induction of apoptosis in human A549 cells assessed as membrane blebbing after 24 hrs by phase contrast microscopy; type: functional, cell-based
A549 [22] = assay: Induction of apoptosis in human A549 cells assessed as increase in cleaved caspase-3 level at 8 to 75 nM by Western blot method; type: functional, cell-based
A549 [23] = assay: Induction of apoptosis in human A549 cells assessed as caspase-3 level at 8 to 75 nM by Western blot method; type: functional, cell-based
Mus musculus [24] = assay: Toxicity in BALB/c nude mouse xenografted with human Bel7402 cells assessed as body weight at 60 mg/kg, ip aadministered once in a week for two weeks starting from 6 days post tumor transplantation measured every 3 days for 21 days (reference value: 14.5 g); type: organism-based; conditions: in vivo, 504 h
Mus musculus [25] = assay: Toxicity in BALB/c nude mouse xenografted with human Bel7402 cells assessed as body weight at 30 mg/kg, ip administered once in a week for two weeks starting from 6 days post tumor transplantation measured every 3 days for 21 days (reference value: 14.5 g); type: organism-based; conditions: in vivo, 504 h
Bel-7402 [26] = assay: Antitumor activity against human Bel7402 cells xenografted in BALB/c nude mouse assessed as tumor growth inhibition at 60 mg/kg, ip administered once in a week for two weeks starting from 6 days post tumor transplantation measured 27 to 30 days post tumor transplantation relative to control; type: functional; conditions: Bel-7402, ip, read-out: TGI
Bel-7402 [27] = assay: Antitumor activity against human Bel7402 cells xenografted in BALB/c nude mouse assessed as tumor growth inhibition at 30 mg/kg, ip administered once in a week for two weeks starting from 6 days post tumor transplantation measured 27 to 30 days post tumor transplantation relative to control; type: functional; conditions: Bel-7402, ip, read-out: TGI
Mus musculus [28] = assay: Toxicity in Kunming mouse implanted with mouse H22 cells assessed as body weight at 100 mg/kg, ip administered once (reference value: 31.1 g); type: organism-based; conditions: in vivo
Mus musculus [29] = assay: Toxicity in Kunming mouse implanted with mouse H22 cells assessed as body weight at 60 mg/kg, ip administered twice (reference value: 31.1 g); type: organism-based; conditions: in vivo
Bel-7402 [30] = assay: Antitumor activity against human Bel7402 cells xenografted in BALB/c nude mouse assessed as tumor volume at 60 mg/kg, ip administered once in a week for two weeks starting from 6 days post tumor transplantation measured 27 to 30 days post tumor transplantation relative to control; type: functional
Bel-7402 [31] = assay: Antitumor activity against human Bel7402 cells xenografted in BALB/c nude mouse assessed as tumor volume at 30 mg/kg, ip administered once in a week for two weeks starting from 6 days post tumor transplantation measured 27 to 30 days post tumor transplantation relative to control; type: functional

`CCc1c2c(nc3ccccc13)-c1cc3c(c(=O)n1C2)COC(=O)[C@@]3(CC)OC(=O)Cn1cc(F)c(=O)[nH]c1=O` was tested, and the pIC50 (BGC-823 [1]) was 7.49, the Activity (Mus musculus [2]) was 27.3 g and the inhibition in vivo at 60 mg/kg (H22) was 64.5%. For the same compound, the Activity (Mus musculus [3]) was 21.9 g, the Activity (Mus musculus [4]) was 19.1 g and the Activity (Mus musculus [5]) was “Non-Toxic”. It also gave a T/C (BGC-823 [6]) of 5.54%, an Activity (A549 [7]) of 3.74% and an Activity (A549 [8]) of 13.06%. The Activity (A549 [9]) was 3%, the Activity (A549 [10]) was 32.28% and the Activity (A549 [11]) was 36.5%. It also gave an Activity (A549 [12]) of 71.74%, an Activity (A549 [13]) of 2.17% and an Activity (A549 [14]) of 67.07%. For the same compound, the viability at 0.075 µM (A549 [15]) was 30.6%, the Activity (A549 [16]) was 23.7% and the Activity (A549 [17]) was 34.98%. For the same compound, the viability at 0.025 µM (A549 [18]) was 53.4%, the Activity (A549 [19]) was 26.6% and the Activity (A549 [20]) was 9.9%. The Activity (A549 [21]) was “Dose-dependent effect”, the Activity (A549 [22]) was “Active” and the Activity (A549 [23]) was “Active”. The Activity (Mus musculus [24]) was “Non-Toxic”, the Activity (Mus musculus [25]) was “Non-Toxic” and the inhibition in vivo at 60 mg/kg (Bel-7402 [26]) was 81.5%. It also gave an inhibition in vivo at 30 mg/kg (Bel-7402 [27]) of 62.6%, an Activity (Mus musculus [28]) of 29.8 g and an Activity (Mus musculus [29]) of 27.2 g. The T/C (Bel-7402 [30]) was 24.53% and the T/C (Bel-7402 [31]) was 41.17%.
